Measured values from US20240067639A1, “SMALL MOLECULES THAT TARGET THE RNA THAT CAUSES ALS” (EXPANSION THERAPEUTICS, INC., priority 2020, published 2024).
Where two headings read alike, the source gives them in different places.

Legend:
[1] = biological target: biotinylated r(G4C2)8 RNA and hnRNP H1-His6; test: TR-FRET hnRNP H binding assay
Protocol: TR-FRET hnRNP H Binding Assay. The TR-FRET assays were performed as previously described (Disney et al., 2012) except the final concentrations of biotinylated r(G4C2)8 (SEQ ID NO: 2) RNA and hnRNP H1-His6 were 80 nM and 75 nM, respectively. The RNA was folded by heating to 95° C. for 5 min in 1× Folding Buffer followed by slowly cooling to room temperature. The buffer was adjusted to 1×TR-FRET Assay Buffer followed by addition of compound. The mixture was incubated for 15 min at room temperature and then hnRNP H1-His6 was added. After an additional 15 min incubation, streptavidin-XL665 (HTRF, Cisbio Bioassays) and anti-His6-Tb (HTRF, Cisbio Bioassays) were added to a final concentration of 40 nM and 0.44 ng/μL, respectively. After incubating for 1 h, TR-FRET was measured as previously described. The IC50s were either calculated by fitting the equation (1) in Graphpad Prism.

[2] = tested on: RAN translation of (G4C2)66-No ATG-GFP in HEK293T cells; test: Cell-based assay of RAN translation inhibition (GFP/mCherry reporter); conditions: Homo sapiens, HEK-293T, 24 h, read-out: RANT IC25
[3] = Table F, HEK293T, 24 h treatment
[4] = Table D, HEK293T, 24 h treatment

Row | Compound | Ki ([1]; Table F) | IC25 [2] | IC25 [2, 3] | Ki ([1]; Table D) | IC25 [2, 4]
1 | Cc1c2ccncc2cc2c1oc1ccc(OCCN(C)C)cc12 [Compound 236, N,N-dimethyl-2-((5-methylbenzofuro[2,3-g]isoquinolin-9-yl)oxy)ethanamine] | 14 µM | > 5 µM |  |  | 
2 | CN(C)CCOc1ccc2c(c1)c1cc3cnccc3cc1n2C [Compound 237, N,N-dimethyl-2-((6-methyl-6H-pyrido[4,3-b]carbazol-9-yl)oxy)ethanamine] | 3.6 µM | 2 µM |  |  | 
3 | Cc1c2ccncc2cc2c3cc(OC[C@@H](C)N(C)C)ccc3n(C)c12 [Compound 242, (R)-1-((5,6-dimethyl-6H-pyrido[4,3-b]carbazol-9-yl)oxy)-N,N-dimethylpropan-2-amine] | 0.5 µM |  | 1.5 µM |  | 
4 | Cc1c2ccncc2cc2c3cc(N4CCN(C)CC4)ccc3n(C)c12 [Compound 243, 5,6-dimethyl-9-(4-methylpiperazin-1-yl)-6H-pyrido[4,3-b]carbazole] | 0.6 µM |  | 1.2 µM |  | 
5 | Cc1c2ccncc2cc2c3cc(N4CCNCC4)ccc3n(C)c12 [Compound 244, 5,6-dimethyl-9-(piperazin-1-yl)-6H-pyrido[4,3-b]carbazole] | 0.4 µM |  | 2.4 µM |  | 
6 | Cn1c2ccc(OCC(=N)N)cc2c2cc3cnccc3cc21 [Compound 245, 2-((6-methyl-6H-pyrido[4,3-b]carbazol-9-yl)oxy)acetimidamide] | 0.8 µM |  | 1.7 µM |  | 
7 | Cc1c2ccncc2cc2c3cc(N4CCNC5(CC5)C4)ccc3n(C)c12 [Compound 246, 5,6-dimethyl-9-(4,7-diazaspiro[2.5]octan-7-yl)-6H-pyrido[4,3-b]carbazole] | 1.6 µM |  | > 5 µM |  | 
8 | Cc1c2ccncc2cc2c3cc(OCCN4CCOCC4)ccc3n(CC(C)(C)C)c12 [Compound 247, 4-(2-((5-methyl-6-neopentyl-6H-pyrido[4,3-b]carbazol-9-yl)oxy)ethyl)morpholine] | > 200 µM |  | > 5 µM |  | 
9 | Cc1c2ccncc2cc2c3cc(OCCN4CCOCC4)ccc3n(CCC(C)C)c12 [Compound 248, 4-(2-((6-isopentyl-5-methyl-6H-pyrido[4,3-b]carbazol-9-yl)oxy)ethyl)morpholine] | > 200 µM | > 5 µM |  |  | 
10 | Cc1c2ccncc2cc2c3cc(OCC4=NCCN4)ccc3n(CCC(C)C)c12 [Compound 249, 9-(4,5-dihydro-1H-imidazol-2-ylmethoxy)-6-isopentyl-5-methyl-pyrido[4,3-b]carbazole] | 22 µM |  | > 5 µM |  | 
11 | Cc1c2ccncc2cc2c1[nH]c1ccc(OCCN3CCOCC3)cc12 [Compound 250, 4-(2-((5-methyl-6H-pyrido[4,3-b]carbazol-9-yl)oxy)ethyl)morpholine] | 11 µM |  | > 5 µM |  | 
12 | Cc1c2ccncc2cc2c3cc(OCC4=NCCN4)ccc3n(CC(C)(C)C)c12 [Compound 252, 9-((4,5-dihydro-1H-imidazol-2-yl)methoxy)-5-methyl-6-neopentyl-6H-pyrido[4,3-b]carbazole] | > 200 µM |  | > 5 µM |  | 
13 | Cc1c2ccnc(C(=O)N[C@H](C)CN(C)C)c2cc2c3cccc(OCCCN4CCN(C)CC4)c3n(C)c12 [Compound 253, (R)—N-(1-(dimethylamino)propan-2-yl)-5,6-dimethyl-7-(3-(4-methylpiperazin-1-yl)propoxy)-6H-pyrido[4,3-b]carbazole-1-carboxamide] | 14 µM |  | > 5 µM |  | 
14 | Cc1c2ccncc2cc2c3cc(OCC4=NCCN4)cc(F)c3n(C)c12 [Compound 254, 9-((4,5-dihydro-1H-imidazol-2-yl)methoxy)-7-fluoro-5,6-dimethyl-6H-pyrido[4,3-b]carbazole] | 1.8 µM |  | > 5 µM |  | 
15 | CCn1c2ccc(OCC3=NCCN3)cc2c2cc3cnccc3cc21 [Compound 255, 9-(4,5-dihydro-1H-imidazol-2-ylmethoxy)-6-ethyl-pyrido[4,3-b]carbazole] | 8.8 µM |  | 1.25 µM |  | 
16 | CC(C)n1c2ccc(OCC3=NCCN3)cc2c2cc3cnccc3cc21 [Compound 256, 9-(4,5-dihydro-1H-imidazol-2-ylmethoxy)-6-isopropyl-pyrido[4,3-b]carbazole] | 42 µM |  | > 5 µM |  | 
17 | Cc1c2ccncc2cc2c1[nH]c1ccc(OCC3=NCCN3)cc12 [Compound 257, 9-((4,5-dihydro-1H-imidazol-2-yl)methoxy)-5-methyl-6H-pyrido[4,3-b]carbazole] | 5.7 µM |  | 2.7 µM |  | 
18 | COc1ccc2c(c1)c1cc3c(C(=O)N[C@H](C)CN(C)C)nccc3c(C)c1n2C [Example 25, (R)—N-(1-(dimethylamino)propan-2-yl)-9-methoxy-5,6-dimethyl-6H-pyrido[4,3-b]carbazole-1-carboxamide] |  |  |  | 39 µM | 0.27 µM
19 | Cc1c2ccnc(C(=O)N[C@H](C)CN(C)C)c2cc2c3cc(OCCCN4CCN(C)CC4)ccc3n(C)c12 [Example 26, (R)—N-(1-(dimethylamino)propan-2-yl)-5,6-dimethyl-9-(3-(4-methylpiperazin-1-yl)propoxy)-6H-pyrido[4,3-b]carbazole-1-carboxamide] |  |  |  | 5.9 µM | 0.57 µM
20 | COc1ccc2c(c1)c1cc3c(C(=O)N[C@@H](C)CN(C)C)nccc3c(C)c1n2C [Example 27, (S)—N-(1-(dimethylamino)propan-2-yl)-9-methoxy-5,6-dimethyl-6H-pyrido[4,3-b]carbazole-1-carboxamide] |  |  |  | 9.1 µM | 1 µM
21 | COc1ccc2c(c1)c1cc3c(C(=O)NCCN(C)C)nccc3c(C)c1n2C [Example 28, N-[2-(dimethylamino)ethyl]-9-methoxy-5,6-dimethyl-pyrido[4,3-b]carbazole-1-carboxamide] |  |  |  | 8.1 µM | 0.64 µM
22 | COc1ccc2c(c1)c1cc3c(C(=O)NCCCN(C)C)nccc3c(C)c1n2C [Example 29, N-(3-(dimethylamino)propyl)-9-methoxy-5,6-dimethyl-6H-pyrido[4,3-b]carbazole-1-carboxamide] |  |  |  | 17 µM | 0.74 µM
23 | Cc1c2ccncc2cc2c3cc(OCCN4CCN(C)CC4)ccc3n(C)c12 [Example 30, 5,6-dimethyl-9-(2-(4-methylpiperazin-1-yl)ethoxy)-6H-pyrido[4,3-b]carbazole] |  |  |  | 2.5 µM | 2.2 µM
24 | Cc1c2ccncc2cc2c3cc(OCCN4CCCCC4)ccc3n(C)c12 [Example 31, 5,6-dimethyl-9-(2-(piperidin-1-yl)ethoxy)-6H-pyrido[4,3-b]carbazole] |  | 2.8 µM |  | 4.5 µM | 
25 | Cc1c2ccncc2cc2c3cc(OCCN)ccc3n(C)c12 [Example 32, 2-((5,6-dimethyl-6H-pyrido[4,3-b]carbazol-9-yl)oxy)ethanamine] |  |  |  | 9.5 µM | 1.4 µM
26 | CCN(CC)CCOc1ccc2c(c1)c1cc3cnccc3c(C)c1n2C [Example 33, 2-((5,6-dimethyl-6H-pyrido[4,3-b]carbazol-9-yl)oxy)-N,N-diethylethanamine] |  | 3.7 µM |  | 5.2 µM | 
27 | CNC(=O)COc1ccc2c(c1)c1cc3cnccc3c(C)c1n2C [Example 34, 2-((5,6-dimethyl-6H-pyrido[4,3-b]carbazol-9-yl)oxy)-N-methylacetamide] |  |  |  | 6.1 µM | 1.2 µM
28 | Cc1c2ccncc2cc2c3cc(OCc4nccn4C)ccc3n(C)c12 [Example 35, 5,6-dimethyl-9-((1-methyl-1H-imidazol-2-yl)methoxy)-6H-pyrido[4,3-b]carbazole] |  |  |  | 38 µM | > 5 µM
